Test results taken from US9861647B2 (Prelief Inc., priority 2007, dated 2018).

How the values were obtained:
[1] = system: inflammatory cells in nasal lavage; test: Nasal lavage cell counts and differentials after nasal ragweed challenge; type: in vivo, Beagle dogs
Protocol: Ragweed sensitized beagle dogs (n=5) with preexisiting nasal and airway allergic responses were utilized in the animal study described in this Example. Dogs served as their own control and initially were treated with vehicle (sterile water) and then rested for 5 weeks prior to receiving the test compound. […] Based on the aerosol testing only 1.6 mg/dog could be delivered by inhalation during a 15 minute exposure (20 mg/ml solution). In addition, each dog received twice daily an intranasal instillation of 30 mg (2×375 μl of 20 mg/ml in each nostril) given within 30 minutes after the end of the inhalation exposures.
FIG. 1 summarizes the study design for characterizing the effects of CGP on rhinitis symptoms in ragweed sensitized Beagle dogs. The baseline nasal cavity volume was first measured 3 days (day −3) before each of the vehicle and CGP treatments. The dogs were treated with vehicle or CGP (day 0) twice daily with the target dosage described above. […]
Total nasal cells were determined using an automatic cell counter. […] At least four hundred inflammatory cells (or less if applicable) were counted and the percentage of specific cell types determined for each animal (slides in duplicates, 200 cells per slide). […]
Changes in nasal cavity volume or mediator levels were assessed by two way analysis of variance (ANOVA) with Bonferroni post-test. […]

[2] = system: human subject having asthma; test: Application of CGP composition to a human subject having asthma; type: in vivo
Description: A CGP composition similar to that described in Example 3, containing about 2% (w/w) CGP, was used in this study. A second human subject, a person having a life history of asthma, participated in this study.
The subject intentionally stopped using Advair Diskus (steroid) for about 2 weeks. Their allergies to molds were triggered by a ‘musty’ indoor environment resulting from several rainy and humid days. The allergies in turn triggered their asthma. The subject had felt a slight reduction in their airflow capacity for a few days, but had withheld use of albuterol inhaler (asthma rescue medication) during the day and only used it for severe wake-ups during the night. The subject had to use albuterol inhaler for three contiguous nights prior to the night described below.
In that night, at about 8:30 PM, the subject was experiencing difficulty breathing and wheezing, which signaled the start of an asthma attack. At about 8:35 PM, the subject applied two sprays of the CGP composition into each nostril and one spray of the CGP composition into their mouth for inhalation. An average spray delivery contained about 200 mg of the composition. […] At about 8:52 PM, the subject did two additional oral inhalations of the composition. At about 8:55 PM, the subject noticed that their wheeze and tightness in chest were relieved about 80% or more. All nasal drips had been sniffed back in. At about 8:58 PM, the subject perceived a gradual improvement and experienced no labor in breathing. At about 9:05 PM, the subject felt better, but desired full relief and wanted to increase breathing capacity. They applied one inhalation of the composition into each nostril; paused to get full breath, then applied two deep oral inhalations of the composition at about 9:07 PM. At about 9:27 PM, the subject felt fine and substantially back to normal. At about 9:37 PM, the subject felt improved. At about 10:16 PM, the subject felt fully (100%) recovered. At about 11:00 PM, the subject felt fine, no worry, and went to bed. […] At about 8:00 AM the next day, the subject felt a little tightness in chest. Instead of using 2 puffs of albuterol to start the day as they normally did, the subject used the CGP composition. They applied two sprays of the composition into each nostril and two sprays of the composition into their mouth for inhalation.

[3] = pH of the nebulizer solution; type: physicochemical; settings: 20 mg/ml in sterile water
Protocol: Vehicle (sterile water) was given twice daily by inhalation (15 minutes) followed by intranasal instillation of water (2×250 μl in each nostril). […] The test-article and the compound solution were prepared in the morning of each treatment day. Vehicle and test-article were administered by inhalation and intranasal instillation twice a day. Dosing of vehicle or test compound was achieved by utilizing a face mask connected to a jet nebulizer for inhalation delivery followed by intranasal instillation in both nostrils using an Accuspray device.
Treatment occurred on Days 0 to 5 (only AM on Day 5). Vehicle and compound were delivered in the morning (8:15-9:10 am) and the afternoon (2:00-3:30 pm). On days when acoustic rhinometry procedures were performed (Days 0), the morning dosing occurred such that the procedures were performed within 1-6 h after dosing. The pH of the compound (as administered for nasal inhalation) was recorded prior to administration. As identified in the aerosol exposure the average pH of the nebulizer solution was 8.85.

nosebleeds = test: Stanching nosebleeds at higher CGP levels; type: in vivo; settings: higher levels tested, about 7.5% (w/w) or above

calcium glycerophosphate
levels of macrophages in nasal lavage ([1]; following treatment, not detectable following vehicle): negligible levels | number of inflammatory cells in the nasal lavage ([1]; pretreatment vs vehicle, Days 1 and 2 after nasal RW challenge): did tend to reduce the lung inflammatory cells compared to vehicle treatment, although none of the endpoints reached statistical significance | relief of tightness in chest next morning ([2]; about 8:00 AM next day, two sprays each nostril and two sprays into mouth instead of albuterol): felt relief and no need to use the albuterol inhaler | relief at start of an asthma attack ([2]; about 8:40 PM, 5 min after first sprays, composition about 2% (w/w) CGP, one subject): mild relief | wheeze and tightness in chest relieved ([2]; about 8:55 PM, after nasal sprays and oral inhalations from 8:35 PM, about 2% (w/w) CGP): ≥ 80% | subject felt recovered ([2]; about 10:16 PM, first application 8:35 PM, about 2% (w/w) CGP): 100% | night wake-up and inhaler use ([2]; night after the treated attack): no wake-up with shortness of breath and did not use inhaler during the night | average pH of the nebulizer solution [3]: 8.85 | stanching nosebleeds (nosebleeds): may help in stanching nosebleeds
